Measurements: patent publication US10227350B2 (Gilead Sciences, Inc., priority 2016, dated 2019)

Target: PI3Kβ (Homo sapiens (Human), UniProt P42338)
Assay: TR-FRET enzymatic activity assay, PI3Kβ
Type: biochemical
Conditions: 2× Km ATP, 2 μM PIP2, 30 minutes at 25° C., read-out: IC50-PIP-Beta
In short: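 Purified recombinant heterodimeric PI3Kβ; PIP3 formation read by TR-FRET as competition with fluorescent tracer for GRP-1 PH domain binding. Compounds incubated 30 min at 25 °C.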

Sequence of PI3Kβ (P42338 whole entry): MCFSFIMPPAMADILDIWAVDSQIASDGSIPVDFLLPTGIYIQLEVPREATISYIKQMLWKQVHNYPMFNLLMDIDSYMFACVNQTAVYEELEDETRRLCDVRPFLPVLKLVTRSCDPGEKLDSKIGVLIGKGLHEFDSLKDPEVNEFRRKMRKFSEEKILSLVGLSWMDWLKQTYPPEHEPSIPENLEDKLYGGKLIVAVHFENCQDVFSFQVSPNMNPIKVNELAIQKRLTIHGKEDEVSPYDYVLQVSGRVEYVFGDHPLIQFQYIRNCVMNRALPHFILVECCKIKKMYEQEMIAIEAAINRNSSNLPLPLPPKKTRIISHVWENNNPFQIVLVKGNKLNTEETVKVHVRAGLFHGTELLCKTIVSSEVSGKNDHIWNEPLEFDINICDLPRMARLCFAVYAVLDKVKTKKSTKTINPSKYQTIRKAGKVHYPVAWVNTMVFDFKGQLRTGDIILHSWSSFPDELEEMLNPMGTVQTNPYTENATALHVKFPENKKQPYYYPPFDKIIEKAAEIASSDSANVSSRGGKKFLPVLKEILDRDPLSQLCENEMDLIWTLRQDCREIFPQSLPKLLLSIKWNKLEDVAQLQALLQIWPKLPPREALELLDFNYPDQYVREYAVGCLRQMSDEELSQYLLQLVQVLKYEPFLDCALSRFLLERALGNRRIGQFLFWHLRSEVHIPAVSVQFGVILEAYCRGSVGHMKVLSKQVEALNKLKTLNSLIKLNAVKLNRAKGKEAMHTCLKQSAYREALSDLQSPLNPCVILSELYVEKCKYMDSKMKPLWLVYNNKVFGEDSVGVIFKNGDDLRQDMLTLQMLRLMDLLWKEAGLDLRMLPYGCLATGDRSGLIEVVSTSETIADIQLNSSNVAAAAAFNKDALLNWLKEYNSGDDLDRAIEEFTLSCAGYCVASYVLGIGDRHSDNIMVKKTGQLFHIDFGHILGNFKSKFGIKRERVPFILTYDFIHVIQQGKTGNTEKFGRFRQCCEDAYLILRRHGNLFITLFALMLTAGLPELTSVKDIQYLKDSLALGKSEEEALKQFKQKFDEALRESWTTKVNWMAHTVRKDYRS
Sequence of PI3Kβ (P27986 whole entry partner): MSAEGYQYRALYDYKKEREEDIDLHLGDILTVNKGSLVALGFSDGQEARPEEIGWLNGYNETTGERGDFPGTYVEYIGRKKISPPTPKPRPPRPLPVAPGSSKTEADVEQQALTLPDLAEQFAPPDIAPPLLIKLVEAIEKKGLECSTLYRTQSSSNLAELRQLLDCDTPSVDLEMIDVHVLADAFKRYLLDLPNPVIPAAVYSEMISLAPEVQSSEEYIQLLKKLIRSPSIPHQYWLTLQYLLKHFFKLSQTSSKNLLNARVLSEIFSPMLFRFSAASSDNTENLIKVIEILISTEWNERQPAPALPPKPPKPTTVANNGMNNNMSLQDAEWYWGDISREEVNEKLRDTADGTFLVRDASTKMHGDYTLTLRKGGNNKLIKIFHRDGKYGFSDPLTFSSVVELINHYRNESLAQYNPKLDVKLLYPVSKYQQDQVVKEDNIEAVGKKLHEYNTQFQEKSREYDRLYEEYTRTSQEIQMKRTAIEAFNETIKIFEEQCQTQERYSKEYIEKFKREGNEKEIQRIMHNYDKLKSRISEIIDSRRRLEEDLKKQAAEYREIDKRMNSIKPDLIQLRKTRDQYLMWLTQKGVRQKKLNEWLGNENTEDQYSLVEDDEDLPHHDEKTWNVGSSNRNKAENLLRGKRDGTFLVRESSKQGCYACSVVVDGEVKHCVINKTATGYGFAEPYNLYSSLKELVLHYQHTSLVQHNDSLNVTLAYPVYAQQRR

An IC50 of 3 nM was found for `Cc1nc2c(-c3nnc[nH]3)cc(-c3ccnc(C#N)c3)cc2n1-c1ccnc2c(Cl)cccc12` (single isomer, unassigned) [Example 129, 4-(1-(8-chloroquinolin-4-yl)-2-methyl-4-(4H-1,2,4-triazol-3-yl)-1H-benzo[d]imidazol-6-yl)picolinonitrile] in this work.
An IC50 of 8 nM was found for `Nc1cc(-c2cc(-c3nnc[nH]3)c3nc(C4CC4)n(-c4ccnc5c(Cl)ccc(F)c45)c3c2)ccn1` [Example 62, 4-[3-(8-chloro-5-fluoroquinolin-4-yl)-2-cyclopropyl-7-(4H-1,2,4-triazol-3-yl)benzimidazol-5-yl]pyridin-2-amine] in this work.
An IC50 of 51 nM was found for `Cc1nc2c(C(N)=O)cc(-c3ccnc(C#N)c3)cc2n1-c1ccnc2c(F)ccc(F)c12` [Example 16, 6-(2-cyanopyridin-4-yl)-1-(5,8-difluoroquinolin-4-yl)-2-methylbenzimidazole-4-carboxamide] in this work.
An IC50 of 13 nM was found for `Nc1cc(-c2cc(-c3nnc[nH]3)c3nc(CC4CC4)n(-c4ccnc5c(F)ccc(F)c45)c3c2)ccn1` [Example 71, 4-[2-(cyclopropylmethyl)-3-(5,8-difluoroquinolin-4-yl)-7-(4H-1,2,4-triazol-3-yl)benzimidazol-5-yl]pyridin-2-amine] in this work.
An IC50 of 210 nM was found for `Cc1nc2c(-c3nnc[nH]3)cc(-c3ccnc(N)c3)cc2n1-c1ccnc2c(F)ccc(F)c12` (single isomer, unassigned) [Example 103, 4-(1-(5,8-difluoroquinolin-4-yl)-2-methyl-4-(4H-1,2,4-triazol-3-yl)-1H-benzo[d]imidazol-6-yl)pyridin-2-amine] in this work.
An IC50 of 7 nM was found for `Cc1nc2c(-c3nnc[nH]3)cc(-c3ccncc3)cc2n1-c1ccnc2c(Cl)cccc12` [Example 38, 8-chloro-4-[2-methyl-6-pyridin-4-yl-4-(4H-1,2,4-triazol-3-yl)benzimidazol-1-yl]quinoline] in this work.
An IC50 of 31 nM was found for `Cc1nnc(-c2cc(-c3ccnc(N)c3F)cc3c2nc(C)n3-c2ccnc3c(F)ccc(F)c23)[nH]1` [Example 97, 4-[3-(5,8-difluoroquinolin-4-yl)-2-methyl-7-(5-methyl-4H-1,2,4-triazol-3-yl)benzimidazol-5-yl-]3-fluoropyridin-2-amine] in this work.
An IC50 of 2 nM was found for `Cc1nc2c(-c3nnc[nH]3)cc(-c3ccnc(C#N)c3)cc2n1-c1ccnc2c(Cl)ccc(Cl)c12` [Example 145, 4-(1-(5,8-dichloroquinolin-4-yl)-2-methyl-4-(4H-1,2,4-triazol-3-yl)-1H-benzo[d]imidazol-6-yl)picolinonitrile] in this work.
An IC50 of 5 nM was found for `Cc1nc2c(-c3nnc[nH]3)cc(-c3ccnc(F)c3)cc2n1-c1ccnc2c(F)ccc(F)c12` [Example 159, 5,8-difluoro-4-(6-(2-fluoropyridin-4-yl)-2-methyl-4-(4H-1,2,4-triazol-3-yl)-1H-benzo[d]imidazol-1-yl)quinoline] in this work.
An IC50 of 46 nM was found for `Fc1nccc(-c2cc(-c3nnc[nH]3)c3ncn(-c4ccnc5c(F)ccc(F)c45)c3c2)c1F` [Example 47, 4-[6-(2,3-difluoropyridin-4-yl)-4-(4H-1,2,4-triazol-3-yl)benzimidazol-1-yl]-5,8-difluoroquinoline] in this work.
An IC50 of 8 nM was found for `CCc1nc2c(-c3nnc[nH]3)cc(-c3ccnc(N)c3F)cc2n1-c1ccnc2cccc(F)c12` [Example 94, 4-[2-ethyl-3-(5-fluoroquinolin-4-yl)-7-(4H-1,2,4-triazol-3-yl)benzimidazol-5-yl]-3-fluoropyridin-2-amine] in this work.
An IC50 of 4 nM was found for `Cc1nc2c(-c3nnc[nH]3)cc(-c3ccnc(N)c3F)cc2n1-c1ccnc2c(Cl)ccc(Cl)c12` (single isomer, unassigned) [Example 120, 4-(1-(5,8-dichloroquinolin-4-yl)-2-methyl-4-(4H-1,2,4-triazol-3-yl)-1H-benzo[d]imidazol-6-yl)-3-fluoropyridin-2-amine] in this work.
An IC50 of 16 nM was found for `Cc1cc(-n2c(C)nc3c(C(N)=O)cc(-c4ccncc4)cc32)c2cccc(Cl)c2n1` [Example 7, 1-(8-chloro-2-methylquinolin-4-yl)-2-methyl-6-pyridin-4-ylbenzimidazole-4-carboxamide] in this work.
An IC50 of 2 nM was found for `Cc1nc2c(-c3nnc[nH]3)cc(-c3ccnc(F)c3)cc2n1-c1ccnc2c(F)ccc(F)c12` (single isomer, unassigned) [Example 133, 5,8-difluoro-4-(6-(2-fluoropyridin-4-yl)-2-methyl-4-(4H-1,2,4-triazol-3-yl)-1H-benzo[d]imidazol-1-yl)quinoline] in this work.
An IC50 of 1600 nM was found for `Cc1cc(-n2c(C)nc3c(C(N)=O)cc(-c4ccncc4)cc32)c2ccccc2n1` [Example 10, 2-methyl-1-(2-methylquinolin-4-yl)-6-pyridin-4-ylbenzimidazole-4-carboxamide] in this work.
An IC50 of 110 nM was found for `Nc1nccc(-c2cc(-c3nnc[nH]3)c3nc(C4CC4)n(-c4ccnc5c(F)cccc45)c3c2)c1F` [Example 88, 4-[2-cyclopropyl-3-(8-fluoroquinolin-4-yl)-7-(4H-1,2,4-triazol-3-yl)benzimidazol-5-yl]-3-fluoropyridin-2-amine] in this work.
An IC50 of 3 nM was found for `Cc1nc2c(-c3nnc[nH]3)cc(-c3ccnc(N)c3)cc2n1-c1ccnc2c(Cl)ccc(F)c12` [Example 51, 4-[3-(8-chloro-5-fluoroquinolin-4-yl)-2-methyl-7-(4H-1,2,4-triazol-3-yl)benzimidazol-5-yl]pyridin-2-amine] in this work.
An IC50 of 12 nM was found for `Cc1nc2c(C(N)=O)cc(-c3ccnc(N)n3)cc2n1-c1ccnc2c(Cl)cccc12` [Example 19, 6-(2-aminopyrimidin-4-yl)-1-(8-chloroquinolin-4-yl)-2-methylbenzimidazole-4-carboxamide] in this work.
An IC50 of 7 nM was found for `Cc1nc2c(-c3nnc[nH]3)cc(-c3ccnc(Cl)c3)cc2n1-c1ccnc2c(F)ccc(F)c12` [Example 158, 4-(6-(2-chloropyridin-4-yl)-2-methyl-4-(4H-1,2,4-triazol-3-yl)-1H-benzo[d]imidazol-1-yl)-5,8-difluoroquinoline] in this work.
An IC50 of 360 nM was found for `Cc1nc2c(-c3nnc[nH]3)cc(-c3ccnc(C#N)c3)cc2n1-c1ccnc2c(F)cccc12` (single isomer, unassigned) [Example 128, 4-(1-(8-fluoroquinolin-4-yl)-2-methyl-4-(4H-1,2,4-triazol-3-yl)-1H-benzo[d]imidazol-6-yl)picolinonitrile] in this work.
An IC50 of 99 nM was found for `Cc1nc2c(-c3nnc[nH]3)cc(-c3ccncc3F)cc2n1-c1ccnc2c(Cl)cccc12` (single isomer, unassigned) [Example 138, 8-chloro-4-(6-(3-fluoropyridin-4-yl)-2-methyl-4-(4H-1,2,4-triazol-3-yl)-1H-benzo[d]imidazol-1-yl)quinoline] in this work.
An IC50 of 13 nM was found for `Cc1nc2c(C(=O)O)cc(-c3ccnc(N)n3)cc2n1-c1ccnc2c(Cl)cccc12` [Example 2] in this work.
An IC50 of 3 nM was found for `Cc1nc2c(-c3nnc[nH]3)cc(-c3ccnc(C#N)c3)cc2n1-c1ccnc2cc(F)cc(F)c12` (single isomer, unassigned) [Example 115, 4-(1-(5,7-difluoroquinolin-4-yl)-2-methyl-4-(4H-1,2,4-triazol-3-yl)-1H-benzo[d]imidazol-6-yl)picolinonitrile] in this work.
An IC50 of 7 nM was found for `Cc1nc2c(-c3nnc[nH]3)cc(-c3ccnc(C#N)c3)cc2n1-c1ccnc2c(Cl)ccc(F)c12` [Example 153, 4-(1-(8-chloro-5-fluoroquinolin-4-yl)-2-methyl-4-(4H-1,2,4-triazol-3-yl)-1H-benzo[d]imidazol-6-yl)picolinonitrile] in this work.
An IC50 of 36 nM was found for `CCc1nc2c(-c3nnc[nH]3)cc(-c3ccnc(N)c3)cc2n1-c1ccnc2cccc(F)c12` [Example 54, 4-[2-ethyl-3-(5-fluoroquinolin-4-yl)-7-(4H-1,2,4-triazol-3-yl)benzimidazol-5-yl]pyridin-2-amine] in this work.
An IC50 of 3 nM was found for `Cc1nc2c(C(N)=O)cc(-c3ccncc3)cc2n1-c1ccnc2c(Cl)ccc(F)c12` [Example 11, 1-(8-chloro-5-fluoroquinolin-4-yl)-2-methyl-6-pyridin-4-ylbenzimidazole-4-carboxamide] in this work.
An IC50 of 560 nM was found for `Cc1nc2c(-c3nnc[nH]3)cc(-c3ccnc(C#N)c3)cc2n1-c1ccnc2c(F)ccc(F)c12` (single isomer, unassigned) [Example 114, 4-[3-(5,8-difluoroquinolin-4-yl)-2-methyl-7-(4H-1,2,4-triazol-3-yl)benzimidazol-5-yl]pyridine-2-carbonitrile] in this work.
An IC50 of 110 nM was found for `Cc1nc2c(-c3nnc[nH]3)cc(-c3ccnc(C#N)c3)cc2n1-c1ccnc2cccc(Cl)c12` (single isomer, unassigned) [Example 125, 4-(1-(5-chloroquinolin-4-yl)-2-methyl-4-(4H-1,2,4-triazol-3-yl)-1H-benzo[d]imidazol-6-yl)picolinonitrile] in this work.
An IC50 of 340 nM was found for `NC(=O)c1cc(-c2ccncc2)cc2c1nc(C1COC1)n2-c1ccnc2c(Cl)cccc12` [Example 12, 1-(8-chloroquinolin-4-yl)-2-(oxetan-3-yl)-6-pyridin-4-ylbenzimidazole-4-carboxamide] in this work.
An IC50 of 57 nM was found for `Cc1nc2c(-c3nnc[nH]3)cc(-c3ccnc(C#N)c3)cc2n1-c1ccnc2c(Cl)cccc12` (single isomer, unassigned) [Example 130, 4-(1-(8-chloroquinolin-4-yl)-2-methyl-4-(4H-1,2,4-triazol-3-yl)-1H-benzo[d]imidazol-6-yl)picolinonitrile] in this work.
An IC50 of 51 nM was found for `Cc1nc2c(-c3nnc[nH]3)cc(-c3ccnc(N)c3F)cc2n1-c1c(Cl)cnc2c(F)cccc12` [Example 92, 4-[3-(3-chloro-8-fluoroquinolin-4-yl)-2-methyl-7-(4H-1,2,4-triazol-3-yl)benzimidazol-5-yl]-3-fluoropyridin-2-amine] in this work.
An IC50 of 35 nM was found for `Cc1nc2c(-c3nnc[nH]3)cc(-c3ccnc(N)c3)cc2n1-c1ccnc2c(F)cccc12` [Example 61, 4-[3-(8-fluoroquinolin-4-yl)-2-methyl-7-(4H-1,2,4-triazol-3-yl)benzimidazol-5-yl]pyridin-2-amine] in this work.
An IC50 of 16 nM was found for `CCCc1nc2c(-c3nnc(C)[nH]3)cc(-c3ccnc(N)c3)cc2n1-c1ccnc2c(Cl)ccc(F)c12` [Example 65, 4-[3-(8-chloro-5-fluoroquinolin-4-yl)-7-(5-methyl-4H-1,2,4-triazol-3-yl)-2-propylbenzimidazol-5-yl]pyridin-2-amine] in this work.
